“Also recorded” adds a separate entry of the source.
Tests used:
[1] = tested on: rhesus monkeys; assay: Spatial delayed response (SDR) task; format: in vivo, rhesus monkey (macaca mulatta)
Source text: AZD0328 at low doses improved performance in the spatial delayed response test in monkeys. Rhesus monkeys were trained in a spatial delayed response task. In this task, food-motivated monkeys observed one of several spatially-displaced wells being baited with a food reward. After a brief delay during which a shutter is drawn and the wells are covered, the monkey must indicate the position of the baited well to receive the food reward. The performance of groups of monkeys was titrated into a narrow range by changing the number of wells or the duration of the delay. Monkeys were tested extensively to establish baseline performance before being administered drug or vehicle. Intramuscular administration of 0.00048 or 0.0016 mg/kg AZD0328 evoked a sustained increase in the percentage of correct responses monkeys made when compared with responses of vehicle-treated monkeys.
Rhesus monkey were trained in a spatial delayed response task. Middle doses of AZD0328 (0.0016 and 0.00048 mg/kg im) evoked a sustained improvement in rhesus monkey performance, while a higher dose (0.48 mg/kg) and a lower dose (0.000016 mg/kg) transiently impaired performance of the task (Table 2).

[2] = tested on: fimbria formix transected rats; assay: Fimbria formix transected rat model (DNMTP, DRL, LTP); format: in vivo
Experimental: Previously, AZD0328 has been described, for example in U.S. Pat. No. 6,110,914 and counterpart worldwide patents, as an α7 agonist. In a widely used model of cognitive dysfunction using fimbria formix transected rats challenged to perform Delayed Non-Match to Position or Differential Reinforcement of Low Rates of Responding tasks, agonistic doses of 1 mg per kg and higher of AZD0328 effectively compensated for the acetylcholine deficiencies of these animals. These doses were associated with plasma concentrations at which AZD0328 acts as an agonist at α7 receptors in vitro. However, lower concentrations were ineffective in these model systems.
The potency of AZD0328 to activate α7 receptors in these in vitro preparations was in the micromolar range. […] For example, 1 or 3 mg/kg of AZD0328 reversed deficits in hippocampal long-term potentiation or response accuracy in two different cognitive tests in fimbria-formix lesioned animals (delayed non-match to position and differential reinforcement of low rates of responding). The minimum effective dose of 1 mg per kg necessary to reverse deficits in the rat fimbria formix model produced plasma concentrations in the range 0.29-1.4 μM in the rat, consistent with the range of concentrations required to activate α7 responses in vitro.

[3] = tested on: isolated perfused female rabbit hearts; assay: Isolated perfused rabbit heart (Hondeghem model)
Source text: Proarrhythmic properties of AZD0328 were investigated in 6 isolated perfused female rabbit hearts according to the Hondeghem model (Table 3). Effects of AZD0328 on action potential duration at 60% of repolarisation (APD60), and Triangulation, Reverse-use dependence and Instability (T, R, I) of the action potential, were studied. Also, a “flag” was raised when T, R or I reached a critical threshold level, below which is considered safe, and the total number of flags was presented as increase in percentage flags. The % flags parameter is considered to be the most sensitive measure of proarrhythmia in this in vitro model, with a threshold for cause of concern at 2.5%. The % flags increased concentration-dependently above threshold at 9 and 30 μM. Although TRIad elements were present, there were no overt signs of proarrhythmia such as early-afterdepolarisations (EADs), Torsade de Pointes, or ventricular fibrillation. In this study the no adverse effect level (NOAEL) of AZD0328 for proarrhythmic signals was 3 μm.

[4] = Cardiovascular/respiratory telemetry and whole body plethysmography; format: in vivo, rat; details: plasma; rat, oral, whole-body plethysmography; read-out: NOAEL on ventilatory function / respiration, total Cmax
Experimental: (§1) Effects of single oral doses of AZD0328 on mean, systolic and diastolic arterial blood pressures, heart rate, body temperature, locomotor activity and respiratory parameters were evaluated in rats by combining whole body plethysmography with telemetry (Table 3). […] The degree of hypertension, however, was similar at the 3 highest doses, which partly can be explained by the high individual variation in plasma exposure at each dose level. The effect on heart rate was, on the other hand, dose-related.
(§2) Effects of AZD0328 on respiratory function were evaluated in the combined cardiovascular/respiratory study in rats (Table 3). Respiratory rate, tidal volume, inspiratory and expiratory times, and peak inspiratory and expiratory flows were measured […].

[5] = tested on: rats; assay: as above; format: in vivo, rat
Experimental: as §1, §2

[6] = tested on: dogs; assay: Cardiovascular telemetry / ECG; format: in vivo; details: dog
Experimental: The cardiovascular effects of orally administered AZD0328 were assessed dogs implanted with telemetry transmitters (Table 3). The main purpose of the study was to evaluate effects on the QT interval of the ECG during a 7-days dosing period followed by 5 days of recovery, thus enabling assessment of any accumulation of effects and the recovery back to baseline. Systolic, diastolic and mean arterial blood pressure, heart rate, lead II ECG and core body temperature were recorded continuously. The PR, QRS and QT intervals of the ECG were measured, and the QT interval was corrected for changes in heart rate using the method of Van de Water (QTcV).

[7] = tested on: rats; assay: Intestinal motility (charcoal meal test, glass bead test); format: in vivo; details: rat, oral
Experimental: Effects of AZD0328 on small intestinal and colorectal motility were investigated in rats using the charcoal meal test and the glass bead test, respectively (Table 3). In the first part, evaluating intestinal transit, a test meal containing charcoal as a non-absorbable marker was administered to rats. In the second part, effects of oral administration of AZD0328 on colo-rectal transit time was evaluated.

[8] = tested on: ferrets; assay: Emetic potential; format: in vivo; details: ferret
Experimental: The emetic potential of AZD0328 was investigated in ferrets (n=6-8/dose) following a single oral dose of vehicle or AZD0328 (Table 3). Videotape recordings were used for observation of the animals up to 4 h after dose for quantitation and timing of emetic behaviours, characterised as retches (abdominal contractions), vomits and wet-dog shakes.

c1cnc2c(c1)C[C@@]1(CN3CCC1CC3)O2 [AZD0328, (R)-Spiro[1-azabicyclo[2.2.2]octane-3,2′(3′H)-furo[2,3-b]pyridine]]
Duration of improved performance after a single dose ([1]; four of nine monkeys improved at middle doses): more than one month
Lower doses with no effect or transient impairment ([1]; rhesus monkeys): ≥ 0.16 µg/kg
Percent correct responses ([1]; rhesus monkeys, 0.016 mg/kg): non-significant increase
Minimum effective dose [2]: 1 mg per kg
NOAEL in the proarrhythmic isolated heart assay [3]: 0.9 µM
NOAEL for proarrhythmic signals ([3]; isolated perfused rabbit heart): 3 μm
Cmax [4]: ≤ 31.2 µM
Dose with no CV effect ([5]; Wistar rat, oral gavage): 1.1 mg/kg
Increase in blood pressure and heart rate ([5]; conscious telemetered rat, oral): > 10%
Locomotor activity or body temperature ([5]; rat, oral, any dose): μM. No effect on locomotor
HR increase ([5]; telemetered Wistar rat, oral gavage, highest dose (total Cmax 31.2 μM)): 19%
Body temperature, PR or QRS interval ([6]; any dose level, 7 or 1 day dosing): no effect
BP and/or HR ([6]; oral gavage): increased at all doses.
Emesis ([6]; single doses 17.3 and 34.6 mg/kg (mid and high dose groups)): frequent vomiting; also recorded: severe emesis. BP and/or HR
Dose with inhibition of small- and large-intestinal motility [7]: ≥ 130 µmol/kg
Emetic responses ([8]; oral gavage 5.6, 16.9 or 56.2 mg/kg): retching, vomiting and wet-dog shakes at all doses
Dose with statistically significant retches vs vehicle ([8]; single oral dose): 5.6 mg/kg

— patent US20100168146A1, “Composition Comprising (R)-Spiro[L-Azabicyclo[2.2.2]Octane-3,2'(3'H)-Furo[2,3-B]Pyridine (AZD0328) and its Use in the Treatment of Alzheimer's Disease, ADHD or Cognitive Dysfunction” (priority 2008, published 2010)
